Assay results from US6696533B1, “Stable N-oxly radical assisted emulsion polymerization under pressure” (BASF Aktiengesellschaft, priority 1997, dated 2004).

Source text: The monomers and polymerization auxiliaries used in the examples below were used without further purification, in other words as acquired.

molal solubility in water: 6.4e-05 mol/kg
Structure (SMILES): CC1(C)CCCC(C)(C)N1O [TEMPO, 2,2,6,6-tetramethyl-1-oxyl-piperidine]
